Measurements: US4377592A, “Antiarrhythmic activity of cetiedil” (Innothera, priority 1979, dated 1983)
“And” between values parts separate entries of the source, which are not always exact repeats. Equal entries are not always repeated. Where two headings read alike, the source gives them in different places.

Tests used:
[1] = tested on: chloroform-induced ventricular fibrillation; experiment: Chloroform-induced ventricular fibrillation in the mouse; assay type: in vivo
Description: In this technique first described by LAWSON, J. W. in J. Pharm. Exp. Ther. 1968, 160, 22 and Vargaftig, B. B. et al in Eur. J. Pharmacol. 1969, 6, 49, the inhalation of chloroform vapour produced in the mouse apnea followed by ventricular fibrillation.
The mechanism of this technique remains unknown.

[2] = tested on: polymorphous arrhythmias induced by adrenaline petrol-ether; experiment: Polymorphous arrhythmias induced in the anaesthetised guinea-pig by adrenaline and petrol ether; assay type: in vivo
Description: Adrenaline in high dosage is a powerful arrhythmogenic stimulus to a myocardia induced by petrol ether, as recognized in the guinea-pig by LE MARECHAL J., Thesis Doct.

[3] = tested on: ventricular fibrillation induced by CaCl2; experiment: Calcium (CaCl2) induced ventricular fibrillation in the anaesthetized rat, Malinow's technique; assay type: in vivo
Description: According to MALINOW, M. R., et coll. Acta. Physiol Latino. Americ.
Using the anaesthetized rat, 200 mg/kg of CaCl2 was injected two minutes after the substances to be tested. The ECG was recorded continuously in lead II.

[4] = tested on: ventricular tachycardia induced by ouabaine; experiment: Ouabain induced ventricular tachycardia in the anesthetized guinea-pig; assay type: in vivo; settings: 5 and 10 mg/kg
Description: This test is used to determine the dose of ouabain administered by slow infusion necessary to obtain the appearance of ventricular extrasystoles. The animal used was the guinea pig and the substances were administered intravenously.

[5] = tested on: ventricular tachycardia induced by Ouabain; experiment: Ouabain induced ventricular tachycardia in the dog (Lucchesi and Hardman); assay type: in vivo; settings: at the average effective dose
Description: The method used is that of […] and HARDMAN, J. Pharmacol. Exp. Ther. 1961, 132, 372-381. Ventricular tachycardia was obtained by the sequential administration of Ouabain until a permanent ventricular tachycardia developed. Following observation of the effect of the substance, the reappearance of this ventricular tachycardia following the injection of insulin was confirmed, thereby showing the persistence within the heart of a toxic dose of Ouabain (Average dose of Ouabain 71.25 γ kg IV).

[6] = tested on: isolated guinea-pig atrial; experiment: Stimulated isolated guinea pig atrial (technique of Dawes); assay type: cell-based
Description: (§1) The technique of DAWES (modified by ALLIES ET AL.) was used with the isolated guinea-pig atrial, and the technique of DUCHENE-MARULLAZ, J. Pharmacol. Paris, 1970, 1, 539, in the anaesthetized dog. This method is used to study the permeability of atrio-ventricular conduction, and thus more precisely conduction at the level of Tawara's nod.

[7] = tested on: atrio-ventricular conduction; experiment: Atrio-ventricular conduction in the anaesthetized dog (Duchene-Marullaz); assay type: in vivo
Description: as §1

[8] = tested on: rabbit cornea oculo-palpebral reflex; assay type: in vivo; settings: for TOTAL DEGREE OF ANAESTHESIA FOR 60 minutes: rabbit cornea, total 13 no anaesthesia, 1300 complete
Description: For the purpose of this study, the classical technique of REGNIER J., Thesis Doct. […] This consists of repeating touching of the rabbit cornea until an oculo-palpebral reflex is obtained. It should be noted that […], in common with the reference substances, was used in the form of the HCl Salt.

rat aortic fragments [9] = experiment: Contraction of rat aorta fragment induced by potassium depolarisation; assay type: cell-based; settings: for pD'2: pD'2 = pDx + log (x - 1)
Description: (§2) Fragments of aorta removed from rats are immersed in survival fluid in the presence of carbogene at 37° C. By modifying the ionic equilibrium of the survival medium, it was possible to study the effects of […] on contraction of the aortic fragments induced by depolarisation with potassium or calcium.

rat aortic fragments [10] = experiment: Competitive antagonism of calcium dose/effect curve of contraction of rat aortic fragment; assay type: cell-based; settings: competitive inhibition versus calcium
Description: as §2

[11] = Tolerance of normal healthy adult male subjects to cetiedil given by intravenous infusion; assay type: in vivo, human
[12] = cited from earlier work
in vivo = settings: mouse, iv

Structure (SMILES): O=C(OCCN1CCCCCC1)C(c1ccsc1)C1CCCCC1 (stereo not drawn) [citrate monohydrate of α-cyclohexyl-3-thiopheneaceticacid 2-(hexahydro-1H-azepin-1-yl)ethyl ester]
- activity relative to propranolol ([1]; chloroform induced fibrillation in the mouse): ten times less powerful than propranolol
- ED50 ([1]; mouse, chloroform vapour inhalation, IP, read-out: ED50): ~50 mg/kg
- ED50 ([2]; Cavia porcellus, ip, guinea-pig, urethane 1.2 g/kg IP, substance 5 minutes before intoxication, read-out: ED50 (dose decreasing by half the duration of the disturbances)): ~1.2 mg/kg
- index I = LD50 IV/ED50 ([2]; Table 1, adrenaline petrol-ether, guinea-pig ED50, mouse LD50): 47.50
- activity relative to the reference β-blocker ([2]; guinea pig, adrenaline and petrol-ether): three times less active than the reference β-blocker
- index LD50/AD50 (ventricular fibrillation) ([3]; Table 2): 18,69
- index LD50/AD50 (death) ([3]; Table 3): 16.29
- AD 50 protection against ventricular fibrillation ([3]; anaesthetized rat, CaCl2 200 mg/kg IV two minutes after substance): 3,50 mg/kg/IV
- ED50 ([3]; anaesthetized rat, CaCl2 200 mg/kg IV two minutes after substance, read-out: AD 50 protection against ventricular fibrillation): 3.5 mg/kg
- threshold before the development of cardiac disturbances [4]: significant increase
- duration of return to sinus rhythm [5]: more than 30 min
- % DECREASE SPONTANEOUS RATE ([6]; concentration 10^-5): 26%
- % DECREASE m.f.s. (maximum frequency followed by the atrial) ([6]; concentration 10^-5): 27%
- % DECREASE SPONTANEOUS RATE ([6]; concentration 10^-6): 6%
- % DECREASE m.f.s. (maximum frequency followed by the atrial) ([6]; concentration 10^-6): 14%
- % DECREASE SPONTANEOUS RATE ([6]; concentration 10^-7): 9%
- % DECREASE m.f.s. (maximum frequency followed by the atrial) ([6]; concentration 10^-7): 6%
- negative bathmotropic effect ([6]; concentration of 1.10^-6): identical to that of Quinidine and less than that of Propranolol
- effect on atrio-ventricular conduction after denervation ([7]; anaesthetized dog, denervated): not altered by denervation
- effect on atrio-ventricular conduction ([7]; anaesthetized dog, intact): significant depression which was proportional to the dose injected
- chronotropic effect ([7]; dog): absence of any significant negative chronotropic effects
- effects on contractile force of the myocardia ([7]; dog, doses of 2.5 and 5 mg/kg): slight
- local anaesthetic effects relative to cocaine ([8]; rabbit): twice as great as those of cocaine
- TOTAL DEGREE OF ANAESTHESIA FOR 60 minutes ([8]; 0.25 g./100, HCl salt): 393.2
- TOTAL DEGREE OF ANAESTHESIA FOR 60 minutes ([8]; 0.50 g./100, HCl salt): 798.8
- duration of complete local anaesthesia ([8]; rabbit, local instillation, concentration of 0.5%): 15 min
- IC50 (rat aortic fragments [9]; in the presence of 1.26 mM of calcium, read-out: concentration reducing by half the force of contraction): 6 µM
- pD'2 (mean) (rat aortic fragments [9]; mean ± SD, potassium depolarisation): 5.23 ± 0.05 and 5.23
- x (rat aortic fragments [9]; single experiment, cetiedil concentration 1 (pDx 6.00)): 1.16
- pD'2 (rat aortic fragments [9]; single experiment, cetiedil concentration 1): 5.20
- x (rat aortic fragments [9]; single experiments, cetiedil concentration 5 (pDx 5.30)): 1.50 and 2.17
- pD'2 (rat aortic fragments [9]; single experiments, cetiedil concentration 5): 5.00 and 5.37
- x (rat aortic fragments [9]; single experiments, cetiedil concentration 10 (pDx 5.00)): 2.78 and 3.24 and 2.70
- pD'2 (rat aortic fragments [9]; single experiments, cetiedil concentration 10): 5.25 and 5.35 and 5.23
- pA2 (rat aortic fragments [10]): 6.27
- overall safety conclusion ([11]; 0.359 mg/kg infused 9 times over a 10 day-period): safe drug
- abnormalities in electrocardiograms, blood chemistry, hematologic profiles, urine analyses ([11]; 10 volunteers, 0.359 mg/kg, 9 infusions over 10 days): no significant abnormalities
- subjects with doubtful elevation in SGOT value ([11]; after completion of study-period, of 10): 2 subjects
- average duration of side effects after completion of infusion ([11]; after the first infusion): 72.9 min
- subjects complaining of side effects ([11]; after the first infusion): 7 subjects
- duration of side effects ([11]; after the ninth infusion): 15 min
- subjects complaining of side effects ([11]; after the ninth infusion): 3 subjects
- K+ level ([11]; another subject, after completing the study): slight reduction
- Ca++ level ([11]; one subject, after completing the study): minimal elevation
- systemic blood pressure ([11]; one to four hours after infusion): slightly decreased
- Pulse rate ([11]; usually one hour after the infusion): slightly reduced
- share of circulating radio-activity due to a metabolite ([12]; 5 minutes after intravenous injection of 0.25 mg): half
- digestive absorbtion ([12]; C14): excellent
- Rectal absorption ([12]; in vivo): relatively low, and above all, very slow
- Biliary excretion ([12]; individual with a biliary drain): no more than 11%
- terminal half-life of plasma radio-activity ([12]; man, 0.25 mg intravenous, C14): approximately five
- terminal half-life of urinary excretion ([12]; man, C14): ~26 h
- radio-activity excreted in the urines ([12]; man, intact biliary circulation): approximately 65%
- plasma radioactivity following oral administration ([12]; man, versus intravenous injection): markedly higher than after intravenous injection
- urinary excretion ([12]; patient who had undergone surgery): 42%
- radio-active transformation substance in urine ([12]; urine passed 1 hour following the injection): 100%
- LD50 (in vivo): 57 mg/kg
